Reference: the NIST ThermoML archive (doi:10.1016/j.fluid.2008.03.004)

Columns and labels:
[1] = xn = mol fraction of the nth substance listed; details: 101 kPa, Liquid; for speed of sound: Sing-around technique in a fixed-path interferometer
[2] = 101 kPa, Liquid; for speed of sound: Sing-around technique in a fixed-path interferometer

Cc1ccc(C)cc1 [1,4-dimethylbenzene] + CCOC(C)(C)C
[1], x2 = 0
Details | mass density [kg/m3] | speed of sound [m/s]
288.15 K | 865.354 | 1347.9
290.65 K | 863.184 | 1336.9
293.15 K | 861.015 | 1326.1
295.65 K | 858.846 | 1315.6
298.15 K | 856.675 | 1305.4
300.65 K | 854.501 | 1295.3
303.15 K | 852.326 | 1285.4
305.65 K | 850.148 | 1275.6
308.15 K | 847.969 | 1266.1
310.65 K | 845.784 | 1256.4
313.15 K | 843.599 | 1246.8
315.65 K | 841.41 | 1237.6
318.15 K | 839.22 | 1228.1
320.65 K | 837.031 | 1220.5
323.15 K | 834.849 | 1211

Cc1ccc(C)cc1 [1,4-dimethylbenzene] + COC(C)(C)C
[1], x2 = 0
Details | mass density [kg/m3] | speed of sound [m/s]
288.15 K | 865.354 | 1347.9
290.65 K | 863.184 | 1336.9
293.15 K | 861.015 | 1326.1
295.65 K | 858.846 | 1315.6
298.15 K | 856.675 | 1305.4
300.65 K | 854.501 | 1295.3
303.15 K | 852.326 | 1285.4
305.65 K | 850.148 | 1275.6
308.15 K | 847.969 | 1266.1
310.65 K | 845.784 | 1256.4
313.15 K | 843.599 | 1246.8
315.65 K | 841.41 | 1237.6
318.15 K | 839.22 | 1228.1
320.65 K | 837.031 | 1220.5
323.15 K | 834.849 | 1211

CCOC(C)(C)C [2-ethoxy-2-methylpropane]
[2]
Details | mass density [kg/m3] | speed of sound [m/s]
288.15 K | 744.955 | 1076.4
290.65 K | 742.482 | 1065.1
293.15 K | 739.947 | 1053.7
295.65 K | 737.374 | 1042.2
298.15 K | 734.806 | 1031
300.65 K | 732.225 | 1019.8
303.15 K | 729.647 | 1008.6
305.65 K | 727.038 | 997.52
308.15 K | 724.443 | 986.39
310.65 K | 721.826 | 975.42
313.15 K | 719.179 | 964.53
315.65 K | 716.527 | 953.54
318.15 K | 713.96 | 942.67
320.65 K | 711.25 | 931.73
323.15 K | 708.642 | 920.73

COC(C)(C)C [2-methoxy-2-methylpropane]
[2]
Details | mass density [kg/m3] | speed of sound [m/s]
288.15 K | 744.861 | 1083.4
290.65 K | 742.259 | 1071.6
293.15 K | 739.654 | 1060
295.65 K | 737.036 | 1048.5
298.15 K | 734.406 | 1036.9
300.65 K | 731.766 | 1025.4
303.15 K | 729.112 | 1013.9
305.65 K | 726.444 | 1002.4
308.15 K | 723.763 | 990.99
310.65 K | 721.069 | 979.62
313.15 K | 718.357 | 968.16
315.65 K | 715.636 | 956.8
318.15 K | 712.897 | 945.54
320.65 K | 710.141 | 934.24
323.15 K | 707.381 | 922.97

COC(C)(C)C [2-methoxy-2-methylpropane] + Cc1cccc(C)c1
[1], x1 = 1
Details | mass density [kg/m3] | speed of sound [m/s]
288.15 K | 744.861 | 1083.4
290.65 K | 742.259 | 1071.6
293.15 K | 739.654 | 1060
295.65 K | 737.036 | 1048.5
298.15 K | 734.406 | 1036.9
300.65 K | 731.766 | 1025.4
303.15 K | 729.112 | 1013.9
305.65 K | 726.444 | 1002.4
308.15 K | 723.763 | 990.99
310.65 K | 721.069 | 979.62
313.15 K | 718.357 | 968.16
315.65 K | 715.636 | 956.8
318.15 K | 712.897 | 945.54
320.65 K | 710.141 | 934.24
323.15 K | 707.381 | 922.97

COC(C)(C)C [2-methoxy-2-methylpropane] + Cc1ccccc1C
[1], x1 = 1
Details | mass density [kg/m3] | speed of sound [m/s]
288.15 K | 744.861 | 1083.4
290.65 K | 742.259 | 1071.6
293.15 K | 739.654 | 1060
295.65 K | 737.036 | 1048.5
298.15 K | 734.406 | 1036.9
300.65 K | 731.766 | 1025.4
303.15 K | 729.112 | 1013.9
305.65 K | 726.444 | 1002.4
308.15 K | 723.763 | 990.99
310.65 K | 721.069 | 979.62
313.15 K | 718.357 | 968.16
315.65 K | 715.636 | 956.8
318.15 K | 712.897 | 945.54
320.65 K | 710.141 | 934.24
323.15 K | 707.381 | 922.97
